Measurements: patent publication US8338565B2, “Macrocyclic compounds for inhibition of tumor necrosis factor alpha” (Ensemble Therapeutics Corporation, priority 2008, dated 2012)
Like-named read-outs stand apart in the source and are kept apart here. Numbered stars: 1 amine (or outer) side, 2 acyl side, 3 side chain; on linkers, the order of the positions; unused ones are H or OH. Bridge positions count the residues as written; N and C are the ends. Square brackets hold non-standard residues; d marks the D form. Peptide text beside a SMILES is read from it. Tartaroyl(2R,3R-(OAc)2) = CC(=O)O[C@@H](C(=O)[*:1])[C@@H](OC(C)=O)C(=O)[*:2]; Phe(4-COOH) = N[C@@H](Cc1ccc(C(=O)O)cc1)C(=O)O; Bip = N[C@@H](Cc1ccc(-c2ccccc2)cc1)C(=O)O; dPhe(4-NH2) = Nc1ccc(C[C@@H](N)C(=O)O)cc1; d(hPhe) = N[C@H](CCc1ccccc1)C(=O)O; d2Thi = N[C@H](Cc1cccs1)C(=O)O; βAla = NCCC(=O)O

Columns and labels:
[1] = molecular target: T1, TNFα / TNFα receptor (TNFα R1/Fc) (Homo sapiens, UniProt P01375); experiment: Inhibition of binding of TNFα to the TNFα receptor (plate ELISA competition); details: Table 2
T1 construct: purchased R&D Systems
T1 sequence (P01375 77-233 limits assumed, species assumed): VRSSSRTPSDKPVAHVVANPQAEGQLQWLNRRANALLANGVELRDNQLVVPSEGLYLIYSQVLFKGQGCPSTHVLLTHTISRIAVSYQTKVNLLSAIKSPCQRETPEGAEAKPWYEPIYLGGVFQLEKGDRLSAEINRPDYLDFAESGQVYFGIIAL
In short: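 Plates were coated with TNFα at 15 nM. Test compound and 8.33 nM receptor-Fc (PBST, 2% DMSO) were first mixed in solution for 30 min at room temperature, then transferred to the plates for another 30 min. Competition was read by absorbance at 450 nm after HRP anti-human IgG Fc detection with TMB.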

[2] = test system: TNF-α (degradation of IkB in HeLa cells or A431 cells); experiment: Human cell-based assay: inhibition of TNF-α induced degradation of IkB; details: for inhibition at 5 µM: read-out: Inhibition at Various Compound Concentrations, 5 μM; for inhibition at 10 µM: read-out: Inhibition at Various Compound Concentrations, 10 μM
[3] = read-out: Activity (IC50, inhibition of TNFα binding to TNFα R1/Fc)
[4] = 5 μM compound, HeLa or A431 cells
[5] = 10 μM compound, HeLa or A431 cells
[6] = Activity (IC50, inhibition of TNFα binding to TNFα R1/Fc)

CC(=O)O[C@H]1C(=O)Nc2ccc(cc2)C[C@H](C(=O)O)NC(=O)[C@@H](CCc2ccccc2)NC(=O)[C@H](Cc2ccc(-c3ccccc3)cc2)NC(=O)[C@@H](Cc2cccs2)NC(=O)[C@@H]1OC(C)=O [Compound 217] ([d2Thi][Bip][d(hPhe)][dPhe(4-NH2)]-OH; linker N-4 via Tartaroyl(2R,3R-(OAc)2))
IC50 [1, 3]: < 10 µM
inhibition at 5 µM [2, 4]: < 10%
inhibition at 10 µM [2, 5]: < 10%

O=C1N[C@H](CCc2ccccc2)C(=O)N[C@@H](C(=O)O)Cc2ccc(cc2)NC(=O)[C@H](O)[C@@H](O)C(=O)N[C@H](Cc2cccs2)C(=O)N[C@H]1Cc1ccc(-c2ccccc2)cc1 [Compound 236]
IC50 [1, 3]: < 10 µM
inhibition at 5 µM [2, 4]: 10 to 50%
inhibition at 10 µM [2, 5]: 10 to 50%

O=C1N[C@H](CCc2ccccc2)C(=O)N[C@@H](C(=O)O)Cc2ccc(cc2)NC(=O)[C@H](O)[C@@H](O)C(=O)N[C@H](Cc2ccccc2)C(=O)N[C@H]1Cc1ccc(Br)cc1 [Compound 237]
IC50 [1, 3]: < 10 µM
inhibition at 5 µM [2, 4]: < 10%
inhibition at 10 µM [2, 5]: < 10%

O=C1N[C@H](CCc2ccccc2)C(=O)N[C@@H](C(=O)O)Cc2ccc(cc2)NC(=O)[C@H](O)[C@@H](O)C(=O)N[C@H](Cc2ccccc2)C(=O)N[C@H]1Cc1ccc(Cl)cc1Cl [Compound 239]
IC50 [1, 3]: < 10 µM
inhibition at 5 µM [2, 4]: < 10%
inhibition at 10 µM [2, 5]: < 10%

O=C1CCNC(=O)c2ccc(cc2)C[C@@H](C(=O)O)NC(=O)[C@@H](Cc2ccccc2)NC(=O)[C@H](Cc2ccc(-c3ccccc3)cc2)NC(=O)[C@@H](CCc2ccccc2)N1 [Compound 248] ([βAla][d(hPhe)][Bip][dF][Phe(4-COOH)]-OH; lactam N-5)
IC50 [1, 3]: < 10 µM
inhibition at 5 µM [2, 4]: < 10%
inhibition at 10 µM [2, 5]: 10 to 50%

O=C(O)[C@H](Cc1ccccc1)NC(=O)[C@@H]1Cc2ccc(cc2)NC(=O)[C@H](O)[C@@H](O)C(=O)N[C@H](Cc2ccc(F)c(F)c2)C(=O)N[C@@H](Cc2ccc(-c3ccccc3)cc2)C(=O)N[C@H](Cc2ccccc2)C(=O)N1 [Compound 282]
IC50 [1, 3]: < 10 µM
inhibition at 5 µM [2, 4]: 50 to 80%
inhibition at 10 µM [2, 5]: 10 to 50%

O=C(O)[C@@H]1Cc2ccc(cc2)NC(=O)[C@H](O)[C@@H](O)C(=O)N[C@H](Cc2cccs2)C(=O)N[C@@H](Cc2ccc(-c3ccccc3)cc2)C(=O)N[C@H](CCc2ccccc2)C(=O)N1 [Compound 289]
IC50 [1, 3]: < 10 µM
inhibition at 5 µM [2, 4]: < 10%
inhibition at 10 µM [2, 5]: < 10%

O=C(O)[C@@H]1Cc2ccc(cc2)NC(=O)[C@H](O)[C@@H](O)C(=O)N[C@H](Cc2cccs2)C(=O)N[C@@H](Cc2ccc(-c3ccccc3)cc2)C(=O)N[C@@H](CCc2ccccc2)C(=O)N1 [Compound 290]
IC50 [1, 3]: < 10 µM
inhibition at 5 µM [2, 4]: < 10%
inhibition at 10 µM [2, 5]: < 10%

CC(C)(NC(=O)[C@@H]1Cc2ccc(cc2)OCC(=O)N[C@H](Cc2cccs2)C(=O)N[C@@H](Cc2ccc(-c3ccccc3)cc2)C(=O)N[C@H](CCc2ccccc2)C(=O)N1)C(=O)O [Compound 297]
IC50 [1, 3]: < 10 µM
inhibition at 5 µM [2, 4]: < 10%
inhibition at 10 µM [2, 5]: < 10%

O=C(O)CCCNC(=O)[C@@H]1Cc2ccc(cc2)OCC(=O)N[C@H](Cc2cccs2)C(=O)N[C@@H](Cc2ccc(-c3ccccc3)cc2)C(=O)N[C@H](CCc2ccccc2)C(=O)N1 [Compound 298]
IC50 [1, 3]: < 10 µM
inhibition at 5 µM [2, 4]: < 10%
inhibition at 10 µM [2, 5]: < 10%

O=C1COc2ccc(cc2)C[C@@H](C(=O)NC2(C(=O)O)CC2)NC(=O)[C@@H](CCc2ccccc2)NC(=O)[C@H](Cc2ccc(-c3ccccc3)cc2)NC(=O)[C@@H](Cc2cccs2)N1 [Compound 299]
IC50 [1, 6]: < 10 µM
inhibition at 5 µM [2]: < 10%
inhibition at 10 µM [2]: < 10%

O=C1COc2ccc(cc2)C[C@@H](C(=O)N[C@@H](Cc2ccc(O)cc2)C(=O)O)NC(=O)[C@@H](CCc2ccccc2)NC(=O)[C@H](Cc2ccc(-c3ccccc3)cc2)NC(=O)[C@@H](Cc2cccs2)N1 [Compound 300]
IC50 [1, 6]: < 10 µM
inhibition at 10 µM [2]: 10 to 50%

O=C(O)CCNC(=O)[C@@H]1Cc2ccc(cc2)OCC(=O)N[C@H](Cc2cccs2)C(=O)N[C@@H](Cc2ccc(-c3ccccc3)cc2)C(=O)N[C@H](CCc2ccccc2)C(=O)N1 [Compound 301]
IC50 [1, 3]: < 10 µM
inhibition at 5 µM [2, 4]: < 10%
inhibition at 10 µM [2, 5]: < 10%

C[C@H](NC(=O)[C@@H]1Cc2ccc(cc2)OCC(=O)N[C@H](Cc2cccs2)C(=O)N[C@@H](Cc2ccc(-c3ccccc3)cc2)C(=O)N[C@H](CCc2ccccc2)C(=O)N1)C(=O)O [Compound 302]
IC50 [1, 3]: < 10 µM
inhibition at 5 µM [2, 4]: 10 to 50%
inhibition at 10 µM [2, 5]: 10 to 50%

C[C@@H](NC(=O)[C@@H]1Cc2ccc(cc2)OCC(=O)N[C@H](Cc2cccs2)C(=O)N[C@@H](Cc2ccc(-c3ccccc3)cc2)C(=O)N[C@H](CCc2ccccc2)C(=O)N1)C(=O)O [Compound 305]
IC50 [1, 3]: < 10 µM
inhibition at 10 µM [2, 5]: < 10%

CC[C@H](C)[C@H](NC(=O)[C@@H]1Cc2ccc(cc2)OCC(=O)N[C@H](Cc2cccs2)C(=O)N[C@@H](Cc2ccc(-c3ccccc3)cc2)C(=O)N[C@H](CCc2ccccc2)C(=O)N1)C(=O)O [Compound 307]
IC50 [1, 3]: < 10 µM
inhibition at 10 µM [2, 5]: < 10%

O=C(O)[C@@H]1Cc2ccc(cc2)NC(=O)[C@H](O)[C@@H](O)C(=O)N[C@H](Cc2ccccc2)C(=O)N[C@@H](Cc2ccc(-c3ccccc3)cc2)C(=O)N[C@H](Cc2ccccc2)C(=O)N1 [Compound 313]
IC50 [1, 3]: < 10 µM
inhibition at 5 µM [2, 4]: < 10%
inhibition at 10 µM [2, 5]: 10 to 50%

O=C(O)[C@@H]1Cc2ccc(cc2)NC(=O)[C@H](O)[C@@H](O)C(=O)N[C@H](Cc2ccsc2)C(=O)N[C@@H](Cc2ccc(-c3ccccc3)cc2)C(=O)N[C@H](Cc2ccccc2)C(=O)N1 [Compound 318]
IC50 [1, 3]: < 10 µM
inhibition at 5 µM [2, 4]: < 10%
inhibition at 10 µM [2, 5]: 10 to 50%

O=C(O)CCNC(=O)[C@@H]1Cc2ccc(cc2)OCC(=O)N[C@@H](Cc2cccs2)C(=O)N[C@H](Cc2ccc(-c3ccccc3)cc2)C(=O)N[C@@H](Cc2ccccc2)C(=O)N1 [Compound 319]
IC50 [1, 3]: < 10 µM
inhibition at 5 µM [2, 4]: < 10%
inhibition at 10 µM [2, 5]: < 10%

O=C1COc2ccc(cc2)C[C@@H](C(=O)N[C@@H](CCc2ccccc2)C(=O)O)NC(=O)[C@@H](CCc2ccccc2)NC(=O)[C@H](Cc2ccc(-c3ccccc3)cc2)NC(=O)[C@@H](Cc2cccs2)N1 [Compound 320]
IC50 [1, 6]: < 10 µM
inhibition at 5 µM [2]: 10 to 50%
inhibition at 10 µM [2]: > 80%

O=C(O)CNC(=O)[C@@H]1Cc2ccc(cc2)OCC(=O)N[C@H](Cc2cccs2)C(=O)N[C@@H](Cc2ccc(-c3ccccc3)cc2)C(=O)N[C@H](CCc2ccccc2)C(=O)N1 [Compound 321]
IC50 [1, 3]: < 10 µM
inhibition at 5 µM [2, 4]: < 10%
inhibition at 10 µM [2, 5]: 10 to 50%

O=C(O)CN(Cc1ccccc1)C(=O)[C@@H]1Cc2ccc(cc2)OCC(=O)N[C@H](Cc2cccs2)C(=O)N[C@@H](Cc2ccc(-c3ccccc3)cc2)C(=O)N[C@H](CCc2ccccc2)C(=O)N1 [Compound 323]
IC50 [1, 6]: < 10 µM
inhibition at 5 µM [2]: 10 to 50%
inhibition at 10 µM [2]: 10 to 50%

O=C1COc2ccc(cc2)C[C@@H](C(=O)N[C@H](Cc2ccccc2)C(=O)O)NC(=O)[C@@H](CCc2ccccc2)NC(=O)[C@H](Cc2ccc(-c3ccccc3)cc2)NC(=O)[C@@H](Cc2cccs2)N1 [Compound 324]
IC50 [1, 6]: < 10 µM
inhibition at 5 µM [2]: 10 to 50%
inhibition at 10 µM [2]: 10 to 50%

COC(=O)[C@H](CC(=O)O)NC(=O)[C@@H]1Cc2ccc(cc2)OCC(=O)N[C@H](Cc2cccs2)C(=O)N[C@@H](Cc2ccc(-c3ccccc3)cc2)C(=O)N[C@H](CCc2ccccc2)C(=O)N1 [Compound 325]
IC50 [1, 3]: < 10 µM
inhibition at 10 µM [2, 5]: < 10%

C[C@H](NC(=O)[C@@H]1Cc2ccc(cc2)OCC(=O)N[C@@H](Cc2cccs2)C(=O)N[C@@H](Cc2ccc(-c3ccccc3)cc2)C(=O)N[C@@H](Cc2ccccc2)C(=O)N1)C(=O)O [Compound 326]
IC50 [1, 3]: < 10 µM
inhibition at 5 µM [2, 4]: 10 to 50%
inhibition at 10 µM [2, 5]: 10 to 50%

COC(=O)[C@H](CC(=O)O)NC(=O)[C@@H]1Cc2ccc(cc2)OCC(=O)N[C@@H](Cc2cccs2)C(=O)N[C@@H](Cc2ccc(-c3ccccc3)cc2)C(=O)N[C@@H](Cc2ccccc2)C(=O)N1 [Compound 327]
IC50 [1, 3]: < 10 µM
inhibition at 5 µM [2, 4]: 10 to 50%
inhibition at 10 µM [2, 5]: < 10%

O=C1COc2ccc(cc2)C[C@@H](C(=O)N[C@@H](CCc2ccccc2)C(=O)O)NC(=O)[C@H](Cc2ccccc2)NC(=O)[C@H](Cc2ccc(-c3ccccc3)cc2)NC(=O)[C@H](Cc2cccs2)N1 [Compound 328]
IC50 [1, 6]: < 10 µM
inhibition at 10 µM [2]: 10 to 50%

COC(=O)c1ccc(-c2ccc(C[C@@H]3NC(=O)[C@@H](Cc4cccs4)NC(=O)[C@H](O)[C@@H](O)C(=O)Nc4ccc(cc4)C[C@@H](C(=O)O)NC(=O)[C@@H](Cc4ccccc4)NC3=O)cc2)cc1 [Compound 332]
IC50 [1, 3]: < 10 µM
inhibition at 5 µM [2, 4]: < 10%

O=C(O)CCNC(=O)[C@@H]1Cc2ccc(cc2)OCC(=O)N[C@@H](Cc2cccs2)C(=O)N[C@@H](Cc2ccc(-c3ccccc3)cc2)C(=O)N[C@@H](Cc2ccccc2)C(=O)N1 [Compound 339]
IC50 [1, 3]: < 10 µM
inhibition at 5 µM [2, 4]: < 10%
inhibition at 10 µM [2, 5]: 10 to 50%

C[C@@H](NC(=O)[C@@H]1Cc2ccc(cc2)OCC(=O)N[C@@H](Cc2cccs2)C(=O)N[C@@H](Cc2ccc(-c3ccccc3)cc2)C(=O)N[C@@H](Cc2ccccc2)C(=O)N1)C(=O)O [Compound 341]
IC50 [1, 3]: < 10 µM
inhibition at 10 µM [2, 5]: < 10%

O=C1COc2ccc(cc2)C[C@@H](C(=O)N[C@@H](Cc2ccc(O)cc2)C(=O)O)NC(=O)[C@H](Cc2ccccc2)NC(=O)[C@H](Cc2ccc(-c3ccccc3)cc2)NC(=O)[C@H](Cc2cccs2)N1 [Compound 343]
IC50 [1, 3]: < 10 µM
inhibition at 5 µM [2, 4]: < 10%
inhibition at 10 µM [2, 5]: 10 to 50%
